Legend:
HUVE cells [1] = test: EGF-induced proliferation of HUVE cells; format: cell-based, human; details: for EGF Cell No.: EGF 5 ng/ml, 48 hrs, 0 μM 5300 ± 300
Protocol: (§1) The cells were incubated at 37° C. under humidified air containing 5% CO2 for 48 hrs. […] Cell numbers were determined with a Coulter counter.

[2] = system: chorioallantoic membrane (CAM) of chick embryos; test: CAM assay, EGF-induced angiogenesis; format: in vivo; details: for % Positive: EGF alone 69, water 21
Protocol: Angiogenesis was measured on the CAM by the method of Knighton et al. (Knighton et al., 1977, Br. J. Cancer 35:347-356) essentially as described (Fett et al., 1985, Biochemistry 24:5480-5486). Fertilized chicken eggs were kept at 18° C. for 2 days and then incubated in a humidified environment at 37° C. for 3 days. Albumin was aspirated from the embryos and after 24 hours, a “window” was cut through the shell and covered with clear tape. […] After 48-68 hours at 37° C., the growth of blood vessels was observed microscopically and recorded as either positive or negative. A positive response (i.e., an angiogenic response) has a typical “spokewheel” appearance.

[3] = system: nuclear translocation of 125I-angiogenin in HUVE cells; test: Nuclear translocation of 125I-angiogenin in HUVE cells
HUVE cells [4] = test: bFGF-induced proliferation of HUVE cells, aminoglycoside antibiotics; format: cell-based, human; details: aminoglycoside 100 μM
Protocol: HUVE cells were seeded at 4×10^3 cells/cm^2 in attachment factor (Cell Systems Corp.)-coated 35 mm dishes in HE-SFM, and incubated with 1 μg/ml angiogenin in the presence or absence of inhibitors at 37° C. for 48 hr. Cell were detached by trypsinization and cell numbers were determined with a Coulter counter.
The ability of the other members of the aminoglycoside antibiotic family to inhibit bFGF-induced proliferation of HUVE cells was examined in a similar manner as for angiogenin as described in Section 6.1.1.5, above. HUVE cells, passage 9, were seeded on attachment-factor coated dishes at 50,000 cells per 35 mm dish in HE-SFM. Aminoglycoside antibiotics were added and the cells were incubated with or without […] at 37° C. for 48 hr.

[5] = system: nuclear translocation of bFGF in HUVE cells; test: Nuclear translocation of 125I-bFGF in HUVE cells; format: cell-based, human; details: for bFGF Counts (nuclear fraction): 125I-bFGF 50 ng/ml, 0 μM: 18300 ± 200
Protocol: Inhibition of nuclear translocation of angiogenic factors in HUVE cells was performed in the following manner. […] The cell pellet was washed once with PBS and lysed with 0.5% triton X-100 in PBS. […] Radioactivity in the nuclear fraction was determined with a gamma counter.

HUVE cells [6] = test: aFGF-induced proliferation of HUVE cells; format: cell-based, human; details: for aFGF Cell No.: aFGF 10 ng/ml, 48 hrs, 0 μM: 73900 ± 2500
Protocol: as §1

## neomycin
HUVE cells [1]; neomycin 25 μM
  EGF Inhib. % of cell proliferation: 17%
  EGF Cell No.: 46700 ± 600
HUVE cells [1]; neomycin 50 μM
  EGF Inhib. % of cell proliferation: 35%
  EGF Cell No.: 41700 ± 600
HUVE cells [1]; neomycin 100 μM
  EGF Inhib. % of cell proliferation: 59%
  EGF Cell No.: 35700 ± 1100
HUVE cells [1]; neomycin 150 μM
  EGF Inhib. % of cell proliferation: 71%
  EGF Cell No.: 32800 ± 200
HUVE cells [1]; neomycin 200 μM
  EGF Inhib. % of cell proliferation: 100%
  EGF Cell No.: 26000 ± 900
HUVE cells [1]; read-out: IC50, EGF-induced proliferation of endothelial cells
  IC50: ~100 µM
[2]; EGF 10 ng + neomycin 20 ng
  % Inhibition of angiogenic activity: 19%
  % Positive: 60%
[2]; EGF 10 ng + neomycin 20 ng, 15 total eggs
  Positive eggs: 9
[2]; EGF 10 ng + neomycin 200 ng
  % Inhibition of angiogenic activity: 81%
  % Positive: 30%
[2]; EGF 10 ng + neomycin 200 ng, 30 total eggs
  Positive eggs: 9
[2]; in vivo
  dosage that inhibited EGF-induced angiogenesis: about 200 ng per embryo
[3]; inhibitor 10 μM, 125I-angiogenin 1 μg/ml 30 min
  % inhibition of nuclear translocation of angiogenin: 42%
[3]; inhibitor 100 μM, 37° C. 30 min, 125I-angiogenin 1 μg/ml 30 min, control 3090 ± 260
  Nuclear 125I-angiogenin: 1230 ± 60 cpm
[3]; neomycin 500 μM
  125I-angiogenin accumulated in the nucleus, % of control: 14%
[3]; neomycin 500 μM, control 3090±260
  Nuclear accumulated 125I-angiogenin: 420±100 cpm
[3]; read-out: IC50, angiogenin nuclear translocation, HUVE cells
  IC50: ~50 µM
HUVE cells [4]; bFGF 10 ng/ml
  % Inhibition of bFGF-induced cell proliferation: 71%
HUVE cells [4]; bFGF 10 ng/ml, 48 hr, control 99000 ± 1000
  bFGF (10 ng/ml) Cell Numbers: 68400 ± 800
HUVE cells [4]; no bFGF, 48 hr, control 61300 ± 500
  Control (cell number without bFGF): 58000 ± 1500
[5]; neomycin 10 μM
  bFGF % Inhib. of nuclear translocation: 13%
  bFGF Counts (nuclear fraction): 15900 ± 100 cpm
[5]; neomycin 50 μM
  bFGF % Inhib. of nuclear translocation: 22%
  bFGF Counts (nuclear fraction): 14300 ± 100 cpm
[5]; neomycin 100 μM
  bFGF % Inhib. of nuclear translocation: 26%
  bFGF Counts (nuclear fraction): 13500 ± 300 cpm
[5]; neomycin 150 μM
  bFGF % Inhib. of nuclear translocation: 32%
  bFGF Counts (nuclear fraction): 12400 ± 200 cpm
[5]; neomycin 200 μM
  bFGF % Inhib. of nuclear translocation: 40%
  bFGF Counts (nuclear fraction): 10900 ± 100 cpm
HUVE cells [6]; neomycin 25 μM
  aFGF Inhib. % of cell proliferation: 25%
  aFGF Cell No.: 60000 ± 400
HUVE cells [6]; neomycin 50 μM
  aFGF Inhib. % of cell proliferation: 42%
  aFGF Cell No.: 51300 ± 400
HUVE cells [6]; neomycin 100 μM
  aFGF Inhib. % of cell proliferation: 50%
  aFGF Cell No.: 46700 ± 800
HUVE cells [6]; neomycin 150 μM
  aFGF Inhib. % of cell proliferation: 63%
  aFGF Cell No.: 41000 ± 1000
HUVE cells [6]; neomycin 200 μM
  aFGF Inhib. % of cell proliferation: 68%
  aFGF Cell No.: 37500 ± 200
